{"source": "paper PMC10101490", "about": "(The Journal of Biological Chemistry, 2023)", "molecular_target": "α7 nAChR (Homo sapiens, UniProt P36544)", "sequence (P36544 23-502 limits assumed)": "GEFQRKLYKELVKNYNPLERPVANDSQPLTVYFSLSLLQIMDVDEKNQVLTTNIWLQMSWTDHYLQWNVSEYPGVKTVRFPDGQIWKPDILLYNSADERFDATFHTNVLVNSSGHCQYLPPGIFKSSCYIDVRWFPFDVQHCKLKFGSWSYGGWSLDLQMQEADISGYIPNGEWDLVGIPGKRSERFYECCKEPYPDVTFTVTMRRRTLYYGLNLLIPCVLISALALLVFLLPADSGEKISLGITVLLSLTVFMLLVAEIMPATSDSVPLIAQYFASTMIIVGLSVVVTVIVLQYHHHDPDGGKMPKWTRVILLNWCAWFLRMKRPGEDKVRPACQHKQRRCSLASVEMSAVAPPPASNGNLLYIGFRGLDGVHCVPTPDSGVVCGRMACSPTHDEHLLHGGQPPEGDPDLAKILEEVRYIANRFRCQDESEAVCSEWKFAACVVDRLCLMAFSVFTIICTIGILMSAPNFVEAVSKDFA", "assay": "cell-based", "parameters": "expressed in transfected cells; host or cells: Xenopus laevis oocytes injected with cRNA transcribed from α7-pSHE; species or system Human (expressed in Xenopus laevis oocytes)", "settings": "Inhibition phase potency", "data": [{"smiles": "CC[C@H](C)[C@H](NC(=O)CNC(=O)[C@H](C)NC(=O)CNC(=O)[C@@H](NC(=O)[C@@H]1CCCN1C(=O)[C@@H](NC(=O)[C@H](CC(=O)O)NC(=O)[C@H](CS)NC(=O)[C@H](CCC(=O)O)NC(=O)[C@@H](N)Cc1ccc(O)cc1)[C@@H](C)CC)[C@@H](C)CC)C(=O)N[C@@H](CS)C(=O)N[C@@H](C)C(=O)N[C@@H](CO)C(=O)N[C@@H](Cc1ccc(O)cc1)C(=O)N[C@@H](CCC(N)=O)C(=O)N[C@H](C(=O)N[C@@H](CCC(N)=O)C(=O)N[C@H](C(=O)N[C@@H](CC(N)=O)C(=O)N[C@@H](CO)C(=O)N[C@@H](CCCNC(=N)N)C(=O)N[C@@H](CCCNC(=N)N)C(=O)N[C@@H](CCCNC(=N)N)C(=O)N[C@@H](C)C(=O)N[C@@H](CCCNC(=N)N)C(=O)N[C@@H](CO)C(=O)N[C@H](C(=O)N[C@@H](C)C(=O)N[C@@H](CO)C(=O)O)C(C)C)[C@@H](C)O)[C@@H](C)O", "note": "[delta SCoV2P]", "values": [{"measurement": "IC50", "value": 100, "unit": "µM"}]}]}
